These results are taken from patent EP1089763B1, “AGENTS FOR SPECIFICALLY INHIBITING OSTEOCLASTIC BONE RESORPTION” (Dietsch, Peter, priority 1998, dated 1999).

Molecules are shown by their SMILES.

A word on the Ki: it is the equilibrium dissociation constant of an inhibitor or competing ligand from its target. The term Kd denotes the concentration at which binding is half-saturated.

One data set has as its system Nierenzellen. Kind of data set: Uptake into kidney cells, DNSA fluorescence displacement (Abb. 2). The settings on record: Nierenzellen with Carboanhydrase II.
Data set [1] relates to Knochenresorption. Kind of data set: Strontium excretion and tibia mineral content in strontium-loaded growing rats. It counts as in vivo, Ratten. The method, then: Wachsenden Ratten - 6 Wochen alt - wurden sechsmal in Abständen von drei Tagen jeweils 2 mg SrCl2 in physiologischer Kochsalzlösung subkutan injiziert. Die Tiere bauen das Strontium analog dem Calcium in den Knochen ein. Entsprechend der Rate des Knochenumbaus wird das Strontium über Harn und Fäces während eines längeren Zeitraums wieder ausgeschieden. Nach einer 14 tägigen Latenzzeit in der sie eine calciumarme Diät erhielten, wurden ihnen verschiedene Konzentrationen von 1 i.p. apliziert und die Ausscheidung des Strontiums atomabsorptionsspektroskopisch gemessen. Die Abb.
Nach Abschluß des Versuches wurden die Tibiae präpariert und deren Gehalt an Calcium, Strontium und Phosphat bestimmt.

Data set [2] has as its target Isoenzym Carboanhydrase II (Homo sapiens, UniProt P00918). Kind of data set: Inhibition constant for carbonic anhydrase II. It counts as biochemical. The settings on record: Isoenzym Carboanhydrase II expressed in osteoclasts; read-out: Inhibitorkonstante KI.
Data set [3] has as its system Knochenresorption. Kind of data set: Serum calcium after injection of parathormone in rats. It counts as in vivo, Ratten. The settings on record: three days after a single dose of 10 mg/kg, Abb. 5. The text has this: Die Hemmung der Knochenresorption in Ratten, die mit 1 behandelt wurden, kann an der Änderung der Calciumkonzentration im Serum nach Injektion von Parathormon demonstriert werden (Abb. 5).

Data set [4] deals with Osteoklasten. Kind of data set: Bone resorption by osteoclasts settled on dentine slices (cell culture). Format: cell-based.
The test system of the next data set is Knochenresooorption. The experiment in a line: Ovariectomised rats, osteoporosis model. It counts as in vivo, Ratten. The settings on record: several months.
The next data set relates to Erythrozyten. Format: cell-based. The settings on record: not told.
The target of the next data set is Carboanhydrase II (Homo sapiens, UniProt P00918). The settings on record: fluorescent DNSA-Carboanhydrase II complex, 1:1; read-out: Dissoziationskonstante KD; cited from earlier work.
Data set [5] has as its system Osteoklasten. The settings on record: not told.

Description for Nierenzellen: Das Maximum der Anregung der Fluoreszenz liegt bei einer Wellenlänge von 320 nm, das Maximum der Emission bei 470 nm. Diese Fluoreszenz läßt sich gut von der des ungebundenen DNSA unterscheiden, da diese grün und sehr viel schwächer ist. Sie hat ihr Emissionsmaximum bei 580 nm. Die Carboanhydrase bindet DNSA im stöchiometrischen Verhältnis 1:1.

With `NS(=O)(=O)c1ccc(CNC(=S)Nc2ccc(OC3OC(CO)C(O)C(O)C3O)cc2)cc1` [compound 1, N-α-D-Mannopyranosylphenyl-N'-p-amidosulfonylbenzylthioharnstoff], in the data set on Nierenzellen, the uptake into cells entry was “nicht aufgenommen”. The Strontiumausscheidung entry in the data set with Knochenresorption [1] (rats, various concentrations i.p., after SrCl2 loading and low-calcium diet, Abb. 3) is “Erniedrigung der Strontiumausscheidung”. Further, the “Gehalt an Calcium, Strontium und Phosphat (Tibiae)” value in the data set on Knochenresorption [1] (versus control group, at the end of the experiment, Abb. 4) was “deutlich höhere Konzentration”. Besides, the Ki in data set [2] was found to be 800 nM. Further, in the data set on Knochenresorption [3], the “knochenauflösende Wirkung von Parathormon (Calciumkonzentration im Serum)” value is “vollständig blockiert”. In addition, the resorption entry with Osteoklasten [4] (in the presence of osteoclast-activating hormones) is “keine Resorption mehr”. Further, in the data set with Osteoklasten [4] (osteoclasts on Dentinplättchen), the resorption entry is “hören sie auf zu resorbieren”. Besides, in the data set on Knochenresooorption, the “Hemmwirkung auf die Knochenresooorption” value was “Hemmwirkung” and the Nebenwirkungen entry was “keine Nebenwirkungen”. Further, the “permeability of the cell membrane” value with Erythrozyten is given as “teilweise für 1 durchlässig”.

On to `CN(C)c1cccc2c(S(N)(=O)=O)cccc12` [DNSA], for which the Kd at Carboanhydrase II is 240 nM. In addition, the membrane permeability result with Osteoklasten [5] is on record as “kann Zellmembranen passieren”.

Turning to `CCOc1ccc2nc(S(N)(=O)=O)sc2c1` [Ethoxzolamid, 6-Ethoxybenzothiaziol-2-sulfonamid, reference compound], the uptake into cells entry with Nierenzellen is reported as “aufgenommen”.
